Data: patent publication US20100129434A1, “COMPOSITIONS AND METHODS FOR THE TREATMENT OF MUCORMYCOSIS AND OTHER FUNGAL DISEASES” (priority 2006, published 2010)
≈ marks a conversion by molar mass, not a printed value. Like-named read-outs stand apart in the source and are kept apart here.

System: R. oryzae
Assay: Deferasirox susceptibility testing (MIC/MFC), R. oryzae isolates
Assay type: cell-based, Rhizopus oryzae
Conditions: for MFC / MIC: Rhizopus arrhizus; for MFC: read-out: MFC; for MIC: read-out: MIC
Experimental: Minimum inhibitory concentration (MIC) and minimum fungicidal concentration (MFC) were determined for deferasirox by the method of Espinel-Ingroff using R. oryzae spores starved for iron (Espinel-Ingroff, (2001), supra). Cidality was defined as a <4-fold difference between MIC and MFC.
We next determined the deferasirox susceptibilities of multiple clinical isolates of Mucorales (Table 3). The MIC9OS of deferasirox against Mucor, non-oryzae Rhizopus spp., and R. oryzae were 3.12 to 6.25 μg/ml. MFCs were similar to MICs, and deferasirox was cidal for 28/29 (97%) of isolates. Of note, slight growth was seen within the first twelve hours even at extremely high concentrations of deferasirox. […] Furthermore, the MICs and MFCs of deferasirox against these isolates were well below clinically achievable peak (˜38 μg/ml) and trough serum levels (˜17 μg/ml) of the drug at steady state when administered at the FDA-approved starting dose (20 mg/kg/d).

[1] = 24 h, R. oryzae pyr17 pyrG−/−, 24 h
[2] = 24 h, R. orzae type II 10206, 24 h

`O=C(O)c1ccc(-n2nc(-c3ccccc3O)nc2-c2ccccc2O)cc1` [Deferasirox, 4-[3,5-Bis(2-hydroxyphenyl)-1H-1,2,4-triazol-1-yl]-benzoic acid] was tested, and the “Fungicidal?” value (R. oryzae 99-133, 24 h) was “Y (Cidal = MFC/MIC ≦ 4)”, the “Fungicidal?” value (R. oryzae 99-133, 48 h) was “Y (Cidal = MFC/MIC ≦ 4)” and the “Fungicidal?” value (R. oryzae 99-880, 24 h) was “Y (Cidal = MFC/MIC ≦ 4)”. The “Fungicidal?” value (R. oryzae 99-880, 48 h) was “Y (Cidal = MFC/MIC ≦ 4)”, the “Fungicidal?” value (R. oryzae 99-892, 24 h) was “Y (Cidal = MFC/MIC ≦ 4)” and the “Fungicidal?” value (R. oryzae 99-892, 48 h) was “Y (Cidal = MFC/MIC ≦ 4)”. The “Fungicidal?” value (R. oryzae 729-02, 24 h) was “Y (Cidal = MFC/MIC ≦ 4)”, the “Fungicidal?” value (R. oryzae 729-02, 48 h) was “Y (Cidal = MFC/MIC ≦ 4)” and the “Fungicidal?” value (R. oryzae HUMC 02, 24 h) was “Y (Cidal = MFC/MIC ≦ 4)”. For the same compound, the “Fungicidal?” value (R. oryzae HUMC 02, 48 h) was “Y (Cidal = MFC/MIC ≦ 4)”, the “Fungicidal?” value (R. oryzae MIC90/MFC90, 24 h) was “Y (Cidal = MFC/MIC ≦ 4)” and the MFC90 (R. oryzae MIC90/MFC90, 24 h) was 12.5 µg/mL (≈ 33.5 µM). For the same compound, the “Fungicidal?” value (R. oryzae MIC90/MFC90, 48 h) was “Y (Cidal = MFC/MIC ≦ 4)”, the MFC90 (R. oryzae MIC90/MFC90, 48 h) was 6.25 µg/mL (≈ 16.7 µM) and the “Fungicidal?” value (R. oryzae pyr17 pyrG−/−, 24 h) was “Y (Cidal = MFC/MIC ≦ 4)”. For the same compound, the “Fungicidal?” value (R. oryzae pyr17 pyrG−/−, 48 h) was “Y (Cidal = MFC/MIC ≦ 4)”, the “Fungicidal?” value (R. oryzae type 1 NRRL13440, 24 h) was “N (Cidal = MFC/MIC ≦ 4)” and the “Fungicidal?” value (R. oryzae type 1 NRRL13440, 48 h) was “N (Cidal = MFC/MIC ≦ 4)”. The “Fungicidal?” value (R. oryzae type I NRRL 6059, 24 h) was “Y (Cidal = MFC/MIC ≦ 4)”, the “Fungicidal?” value (R. oryzae type I NRRL 6059, 48 h) was “Y (Cidal = MFC/MIC ≦ 4)” and the “Fungicidal?” value (R. oryzae type I NRRL 10206, 24 h) was “Y (Cidal = MFC/MIC ≦ 4)”. For the same compound, the “Fungicidal?” value (R. oryzae type I NRRL 10206, 48 h) was “Y (Cidal = MFC/MIC ≦ 4)”, the “Fungicidal?” value (R. oryzae type I NRRL11823, 24 h) was “Y (Cidal = MFC/MIC ≦ 4)” and the “Fungicidal?” value (R. oryzae type I NRRL11823, 48 h) was “Y (Cidal = MFC/MIC ≦ 4)”. For the same compound, the “Fungicidal?” value (R. oryzae type I NRRL13142, 24 h) was “Y (Cidal = MFC/MIC ≦ 4)”, the “Fungicidal?” value (R. oryzae type I NRRL13142, 48 h) was “Y (Cidal = MFC/MIC ≦ 4)” and the “Fungicidal?” value (R. oryzae type I NRRL13533, 24 h) was “Y (Cidal = MFC/MIC ≦ 4)”. For the same compound, the “Fungicidal?” value (R. oryzae type I NRRL13533, 48 h) was “Y (Cidal = MFC/MIC ≦ 4)”, the “Fungicidal?” value (R. oryzae type I NRRL 21251, 24 h) was “Y (Cidal = MFC/MIC ≦ 4)” and the “Fungicidal?” value (R. oryzae type I NRRL 21251, 48 h) was “Y (Cidal = MFC/MIC ≦ 4)”. For the same compound, the “Fungicidal?” value (R. oryzae type I NRRL21396, 24 h) was “Y (Cidal = MFC/MIC ≦ 4)”, the “Fungicidal?” value (R. oryzae type I NRRL21396, 48 h) was “Y (Cidal = MFC/MIC ≦ 4)” and the “Fungicidal?” value (R. oryzae type I NRRL21409, 24 h) was “Y (Cidal = MFC/MIC ≦ 4)”. For the same compound, the “Fungicidal?” value (R. oryzae type I NRRL21409, 48 h) was “Y (Cidal = MFC/MIC ≦ 4)”, the “Fungicidal?” value (R. oryzae type II NRRL 18148, 24 h) was “Y (Cidal = MFC/MIC ≦ 4)” and the “Fungicidal?” value (R. oryzae type II NRRL 18148, 48 h) was “Y (Cidal = MFC/MIC ≦ 4)”. For the same compound, the “Fungicidal?” value (R. oryzae type II NRRL 21446, 24 h) was “Y (Cidal = MFC/MIC ≦ 4)”, the “Fungicidal?” value (R. oryzae type II NRRL 21446, 48 h) was “Y (Cidal = MFC/MIC ≦ 4)” and the “Fungicidal?” value (R. oryzae type II NRRL 21447, 24 h) was “Y (Cidal = MFC/MIC ≦ 4)”. For the same compound, the “Fungicidal?” value (R. oryzae type II NRRL 21447, 48 h) was “Y (Cidal = MFC/MIC ≦ 4)”, the “Fungicidal?” value (R. oryzae type II NRRL 21477, 24 h) was “Y (Cidal = MFC/MIC ≦ 4)” and the “Fungicidal?” value (R. oryzae type II NRRL 21477, 48 h) was “Y (Cidal = MFC/MIC ≦ 4)”. The “Fungicidal?” value (R. oryzae type II NRRL 21628, 24 h) was “Y (Cidal = MFC/MIC ≦ 4)”, the “Fungicidal?” value (R. oryzae type II NRRL 21628, 48 h) was “Y (Cidal = MFC/MIC ≦ 4)” and the “Fungicidal?” value (R. oryzae type II NRRL 21789, 24 h) was “Y (Cidal = MFC/MIC ≦ 4)”. The “Fungicidal?” value (R. oryzae type II NRRL 21789, 48 h) was “Y (Cidal = MFC/MIC ≦ 4)”, the “Fungicidal?” value (R. orzae type II 10206, 24 h) was “Y (Cidal = MFC/MIC ≦ 4)” and the “Fungicidal?” value (R. orzae type II 10206, 48 h) was “Y (Cidal = MFC/MIC ≦ 4)”. It also gave an MFC (24 h, R. oryzae 99-133, 24 h) of 6.25 µg/mL (≈ 16.7 µM), an MIC (24 h, R. oryzae 99-133, 24 h) of 6.25 µg/mL (≈ 16.7 µM) and an MFC (24 h, R. oryzae 99-880, 24 h) of 3.12 µg/mL (≈ 8.36 µM). For the same compound, the MIC (24 h, R. oryzae 99-880, 24 h) was 3.12 µg/mL (≈ 8.36 µM), the MFC (24 h, R. oryzae 99-892, 24 h) was 1.56 µg/mL (≈ 4.18 µM) and the MIC (24 h, R. oryzae 99-892, 24 h) was 1.56 µg/mL (≈ 4.18 µM). It also gave an MFC (24 h, R. oryzae 729-02, 24 h) of 12.5 µg/mL (≈ 33.5 µM), an MIC (24 h, R. oryzae 729-02, 24 h) of 12.5 µg/mL (≈ 33.5 µM) and an MFC (24 h, R. oryzae HUMC 02, 24 h) of 12.5 µg/mL (≈ 33.5 µM). For the same compound, the MIC (24 h, R. oryzae HUMC 02, 24 h) was 12.5 µg/mL (≈ 33.5 µM), the MFC [1] was 0.78 µg/mL (≈ 2.09 µM) and the MIC [1] was 0.78 µg/mL (≈ 2.09 µM). For the same compound, the MFC [2] was 3.12 µg/mL (≈ 8.36 µM), the MIC [2] was 3.12 µg/mL (≈ 8.36 µM) and the MFC (48 h, R. oryzae 99-133, 48 h) was 6.25 µg/mL (≈ 16.7 µM). It also gave an MIC (48 h, R. oryzae 99-133, 48 h) of 1.56 µg/mL (≈ 4.18 µM), an MFC (48 h, R. oryzae 99-880, 48 h) of 3.12 µg/mL (≈ 8.36 µM) and an MIC (48 h, R. oryzae 99-880, 48 h) of 3.12 µg/mL (≈ 8.36 µM). The MFC (48 h, R. oryzae 99-892, 48 h) was 1.56 µg/mL (≈ 4.18 µM) and the MIC (48 h, R. oryzae 99-892, 48 h) was 1.56 µg/mL (≈ 4.18 µM).
